{
  "source": "patent US20230295181A1",
  "about": "“INHIBITOR OF APOPTOSIS (IAP) PROTEIN ANTAGONISTS” (Sanford Burnham Prebys Medical Discovery Institute, priority 2020, published 2023)",
  "note": "Where a name gives a salt, the structure may show the parent alone.",
  "data": [
    {"system": "SKOV-3 cancer cell lines", "assay": "SKOV-3 cell viability after treatment with 10 μM test compound", "assay_type": "cell-based", "settings": "10 micromolar test compound", "experimental": "(§1) SKOV-3 cancer cell lines were treated with a test compound, either as a pure enantiomer or a mixture of stereoisomers, at a concentration of 10 μM. Cell viability was evaluated following treatment with a compound as disclosed in Table B. Viability of cancer cells following treatment is indicated according to the following legend:\n(§2) A=0-25% viability B=26-50% viability C=>50% viability", "values": [
      {"smiles": "CN[C@@H](C)C(=O)N[C@H]1Cc2cc(OC)ccc2[C@H]2CC(C)(C)C(C(=O)N[C@@H]3CCCc4ccccc43)N2C1=O", "note": "(some centres unmarked) [Compound 34]", "% viability after treatment with 10 micromolar of test compound (SKOV-3 cells)": "C (C=>50% viability)"}
    ]},
    {"system": "SKOV-3 cancer cell lines", "assay": "SKOV-3 cell viability after treatment with 10 μM test compound", "assay_type": "cell-based", "settings": "10 micromolar test compound, dihydrochloride", "experimental": "as §1, §2", "values": [
      {"smiles": "CN[C@@H](C)C(=O)N[C@H]1CCO[C@H]2CC(C)(C)[C@@H](CN[C@@H]3CCSc4ccccc43)N2C1=O", "note": "[Compound 67, (S)—N-((4S,7S,9aS)-8,8-dimethyl-5-oxo-7-((((R)-thiochroman-4-yl)amino)methyl)octahydropyrrolo[2,1-b][1,3]oxazepin-4-yl)-2-(methylamino)propanamide dihydrochloride]", "% viability after treatment with 10 micromolar of test compound (SKOV-3 cells)": "B (B=26-50% viability)"}
    ]},
    {"system": "SKOV-3 cancer cell lines", "assay": "SKOV-3 cell viability after treatment with 10 μM test compound", "assay_type": "cell-based", "settings": "10 micromolar test compound, hydrochloride", "experimental": "as §1, §2", "values": [
      {"smiles": "CN[C@@H](C)C(=O)N[C@H]1CCS[C@H]2CC(CCc3ccccc3)[C@@H](C(=O)N[C@@H]3CCCc4ccccc43)N2C1=O", "note": "(stereo partly drawn) [Compound 46, (4S,9aS)-4-((S)-2-(methylamino)propanamido)-5-oxo-8,8-phenethyl-N—((R)-1,2,3,4-tetrahydronaphthalen-1-yl)octahydropyrrolo[2,1-b][1,3]thiazepine-7-carboxamide hydrochloride]", "% viability after treatment with 10 micromolar of test compound (SKOV-3 cells)": "B (B=26-50% viability)"},
      {"smiles": "CN[C@@H](C)C(=O)N[C@H]1CCS[C@H]2CC(C(C)C)(C(C)C)[C@@H](C(=O)N[C@@H]3CCCc4ccccc43)N2C1=O", "note": "[Compound 42, 4S,9aS)-8,8-diisopropyl-4-((S)-2-(methylamino)propanamido)-5-oxo-N—((R)-1,2,3,4-tetrahydronaphthalen-1-yl)octahydropyrrolo[2,1-b][1,3]thiazepine-7-carboxamide hydrochloride]", "% viability after treatment with 10 micromolar of test compound (SKOV-3 cells)": "C (C=>50% viability)"},
      {"smiles": "C=CCC1(CC=C)C[C@@H]2OCC[C@H](NC(=O)[C@H](C)NC)C(=O)N2[C@@H]1C(=O)NC(c1ccccc1)c1ccccc1", "note": "[Compound 51, (4S)-8,8-diallyl-N-benzhydryl-4-((S)-2-(methylamino)propanamido)-5-oxooctahydropyrrolo[2,1-b][1,3]oxazepine-7-carboxamide hydrochloride]", "% viability after treatment with 10 micromolar of test compound (SKOV-3 cells)": "B (B=26-50% viability)"},
      {"smiles": "CN[C@@H](C)C(=O)N[C@H]1CCO[C@H]2CC(CCc3ccccc3)(CCc3ccccc3)[C@@H](C(=O)N[C@@H]3CCCc4ccccc43)N2C1=O", "note": "[Compound 24, (4S,9aS)-4-((S)-2-(methylamino)propanamido)-5-oxo-8,8-diphenethyl-N—((R)-1,2,3,4-tetrahydronaphthalen-1-yl)octahydropyrrolo[2,1-b][1,3]oxazepine-7-carboxamide hydrochloride]", "% viability after treatment with 10 micromolar of test compound (SKOV-3 cells)": "B (B=26-50% viability)"},
      {"smiles": "CN[C@@H](C)C(=O)N[C@H]1CCS[C@H]2CC(C(C)C)(C(C)C)[C@@H](C(=O)N[C@@H]3CCCc4ccccc43)N2C1=O", "note": "[Compound 43, 4S,9aS)-8,8-diisopropyl-4-((S)-2-(methylamino)propanamido)-5-oxo-N—((R)-1,2,3,4-tetrahydronaphthalen-1-yl)octahydropyrrolo[2,1-b][1,3]thiazepine-7-carboxamide hydrochloride]", "% viability after treatment with 10 micromolar of test compound (SKOV-3 cells)": "C (C=>50% viability)"},
      {"smiles": "CCC1(CC)C[C@@H]2SCC[C@H](NC(=O)[C@H](C)NC)C(=O)N2[C@@H]1C(=O)N[C@@H]1CCCc2ccccc21", "note": "[Compound 39, (4S,9aS)-8,8-diethyl-4-((S)-2-(methylamino)propanamido)-5-oxo-N—((R)-1,2,3,4-tetrahydronaphthalen-1-yl)octahydropyrrolo[2,1-b][1,3]thiazepine-7-carboxamide hydrochloride]", "% viability after treatment with 10 micromolar of test compound (SKOV-3 cells)": "B (B=26-50% viability)"},
      {"smiles": "CN[C@@H](C)C(=O)N[C@H]1CCO[C@H]2CC(C(C)C)(C(C)C)[C@@H](C(=O)NC(c3ccccc3)c3ccccc3)N2C1=O", "note": "[Compound 61, (4S)—N-benzhydryl-8,8-diisopropyl-4-((S)-2-(methylamino)propanamido)-5-oxooctahydropyrrolo[2,1-b][1,3]oxazepine-7-carboxamide hydrochloride]", "% viability after treatment with 10 micromolar of test compound (SKOV-3 cells)": "B (B=26-50% viability)"},
      {"smiles": "C=CCC1(CC=C)C[C@@H]2OCC[C@H](NC(=O)[C@H](C)NC)C(=O)N2[C@@H]1C(=O)NC(c1ccccc1)c1ccccc1", "note": "[Compound 48, (4S)-8,8-diallyl-N-benzhydryl-4-((S)-2-(methylamino)propanamido)-5-oxooctahydropyrrolo[2,1-b][1,3]oxazepine-7-carboxamide hydrochloride]", "% viability after treatment with 10 micromolar of test compound (SKOV-3 cells)": "C (C=>50% viability)"}
    ]},
    {"system": "SKOV-3 cancer cell lines", "assay": "SKOV-3 cell viability after treatment with 10 μM test compound", "assay_type": "cell-based", "settings": "Homo sapiens, SK-OV-3, 10 micromolar test compound; SKOV-3 cells", "experimental": "as §1, §2", "units": {"viability at 10 µM": "%"}, "values": [
      {"smiles": "CN[C@@H](C)C(=O)N[C@H]1Cc2ccc(OC)cc2[C@H]2CC(C)(C)C(C(=O)NC(c3ccccc3)c3ccccc3)N2C1=O", "note": "(single isomer, unassigned) [Compound 6, hydrochloride]", "viability at 10 µM": "26 to 50"},
      {"smiles": "CN[C@@H](C)C(=O)N[C@H]1CCS[C@H]2CC(C)(C)[C@@H](C(=O)N[C@H]3c4ccccc4C[C@H]3OCCF)N2C1=O", "note": "[Compound 78, (4S,7S,9aS)—N-((1S,2R)-2-(2-fluoroethoxy)-2,3-dihydro-1H-inden-1-yl)-8,8-dimethyl-4-((S)-2-(methylamino)propanamido)-5-oxooctahydropyrrolo[2,1-b][1,3]thiazepine-7-carboxamide hydrochloride]", "viability at 10 µM": "0 to 25"},
      {"smiles": "CN[C@@H](C)C(=O)N[C@H]1Cc2cc(OC)ccc2[C@H]2CC(C)(C)[C@H](C(=O)N[C@@H]3CCCc4ccccc43)N2C1=O", "note": "[Compound 8, (6S,11bR)-9-methoxy-2,2-dimethyl-6-((S)-2-(methylamino)propanamido)-5-oxo-N—((R)-1,2,3,4-tetrahydronaphthalen-1-yl)-2,3,5,6,7,11b-hexahydro-1H-benzo[c]pyrrolo[1,2-a]azepine-3-carboxamide hydrochloride]", "viability at 10 µM": "26 to 50"},
      {"smiles": "CN[C@@H](C)C(=O)N[C@H]1Cc2c([nH]c3ccccc23)[C@H]2CC(C)(C)C(C(=O)N[C@@H]3CCCc4ccccc43)N2C1=O", "note": "(stereo in doubt) [Compound 3, (3S, 6S,12bR)-2,2-dimethyl-6-((S)-2-(methylamino)propanamido)-5-oxo-N—((R)-1,2,3,4-tetrahydronaphthalen-1-yl)-1,2,3,5,6,7,12,12b-octahydropyrrolo[1′,2′:1,2]azepino[3,4-b]indole-3-carboxamide hydrochloride]", "viability at 10 µM": "> 50"},
      {"smiles": "CN[C@@H](C)C(=O)N[C@H]1CCO[C@H]2CC(C)(C)C(c3nc4ccccc4o3)N2C1=O", "note": "(stereo partly drawn) [Compound 72, (2S)—N-((4S,9aS)-7-(benzo[d]oxazol-2-yl)-8,8-dimethyl-5-oxooctahydropyrrolo[2,1-b][1,3]oxazepin-4-yl)-2-(methylamino)propanamide hydrochloride]", "viability at 10 µM": "> 50"},
      {"smiles": "CN[C@@H](C)C(=O)N[C@H]1Cc2cc(OC)ccc2[C@H]2CC(C)(C)C(C(=O)NC(c3ccccc3)c3ccccc3)N2C1=O", "note": "(stereo partly drawn) [Compound 5, (6S,11bR)—N-benzhydryl-9-methoxy-2,2-dimethyl-6-((S)-2-(methylamino)propanamido)-5-oxo-2,3,5,6,7,11b-hexahydro-1H-benzo[c]pyrrolo[1,2-a]azepine-3-carboxamide]", "viability at 10 µM": "> 50"},
      {"smiles": "CN[C@@H](C)C(=O)N[C@H]1CCOC2c3ccncc3C(C(=O)N[C@@H]3CCCc4ccccc43)N2C1=O", "note": "(stereo partly drawn) [Compound 4, (4S)-4-((S)-2-(methylamino)propanamido)-5-oxo-N—((R)-1,2,3,4-tetrahydronaphthalen-1-yl)-2,3,4,5,7,11b-hexahydropyrido[4′,3′:3,4]pyrrolo[2,1-b][1,3]oxazepine-7-carboxamide dihydrochloride]", "viability at 10 µM": "> 50"},
      {"smiles": "CCC1C[C@@H]2OCC[C@H](NC(=O)[C@H](C)NC)C(=O)N2C1C(=O)N[C@@H]1CCCc2ccccc21", "note": "(stereo partly drawn) [Compound 20, (4S)-8,8-ethyl-4-((S)-2-(methylamino)propanamido)-5-oxo-N—((R)-1,2,3,4-tetrahydronaphthalen-1-yl)octahydropyrrolo[2,1-b][1,3]oxazepine-7-carboxamide hydrochloride]", "viability at 10 µM": "26 to 50"},
      {"smiles": "C=CCC1C[C@@H]2OCC[C@H](NC(=O)[C@H](C)NC)C(=O)N2[C@@H]1C(=O)NC(c1ccccc1)c1ccccc1", "note": "(stereo partly drawn) [Compound 53, (4S)-8,8-allyl-N-benzhydryl-4-((S)-2-(methylamino)propanamido)-5-oxooctahydropyrrolo[2,1-b][1,3]oxazepine-7-carboxamide hydrochloride]", "viability at 10 µM": "26 to 50"},
      {"smiles": "C=CCC1C[C@@H]2OCC[C@H](NC(=O)[C@H](C)NC)C(=O)N2[C@H]1C(=O)N[C@@H]1CCCc2ccccc21", "note": "(stereo partly drawn) [Compound 13, (4S,9aS)-8,8-allyl-4-((S)-2-(methylamino)propanamido)-5-oxo-N—((R)-1,2,3,4-tetrahydronaphthalen-1-yl)octahydropyrrolo[2,1-b][1,3]oxazepine-7-carboxamide hydrochloride]", "viability at 10 µM": "26 to 50"},
      {"smiles": "CN[C@@H](C)C(=O)N[C@@H]1C(=O)N2[C@H](CC(C)[C@H]2C(=O)N[C@@H]2CCCc3ccccc32)OC2CCCCC21", "note": "(some centres unmarked) [Compound 64, hydrochloride]", "viability at 10 µM": "0 to 25"},
      {"smiles": "CN[C@@H](C)C(=O)N[C@H]1CCO[C@H]2CC(CCc3ccccc3)(CCc3ccccc3)C(C(=O)N[C@@H]3CCCc4ccccc43)N2C1=O", "note": "(stereo partly drawn) [Compound 23, (4S,9aS)-4-((S)-2-(methylamino)propanamido)-5-oxo-8,8-diphenethyl-N—((R)-1,2,3,4-tetrahydronaphthalen-1-yl)octahydropyrrolo[2,1-b][1,3]oxazepine-7-carboxamide hydrochloride]", "viability at 10 µM": "26 to 50"},
      {"smiles": "CN[C@@H](C)C(=O)N[C@H]1CCO[C@H]2CC(CCc3ccccc3)(CCc3ccccc3)[C@@H](C(=O)NC(c3ccccc3)c3ccccc3)N2C1=O", "note": "[Compound 62, (4S)—N-benzhydryl-4-((S)-2-(methylamino)propanamido)-5-oxo-8,8-diphenethyloctahydropyrrolo[2,1-b][1,3]oxazepine-7-carboxamide hydrochloride]", "viability at 10 µM": "> 50"}
    ]}
  ]
}
